Consider four molecules from US20240115588A1, “USE OF PROTEASOME INHIBITORS IN THE TREATMENT OF CORONAVIRUS INFECTIONS” (priority 2021, published 2024).

The test system of data set [1] is 2019 Novel Coronavirus, Isolate USA-WA1/2020 (SARS-CoV-2). Put plainly: In vitro efficacy in Calu-3 lung cells, immunostaining assay. The class given is cell-based.
The test system is the same in data set [2]. The experiment in a line: In vitro efficacy in Vero E6 cells, immunostaining assay (second testing series). It is filed as cell-based. The conditions noted are these: for EC50: Severe acute respiratory syndrome coronavirus 2, Vero C1008.
The target of data set [3] is β5 chymotrypsin-like subunit of the 20S proteolytic site of the proteasome (Homo sapiens, UniProt P28074). To be noted: proteasome inhibitor dissociation; cited from earlier work.
Data set [4] relates to SARS-CoV-2. To be noted: cited from earlier work; for dose for complete prevention of CPE: Vero E6, shorter drug treatment time, bortezomib could not completely prevent CPE at these doses.
For data set [5] the following is noted: cited from earlier work.
Data set [6] deals with human plasma protein. The conditions noted are these: IV administered bortezomib; average; cited from earlier work.
For data set [7], the system named is Vero E6 cells. To be noted: cited from earlier work.
For data set [8], the system named is Vero E6 cells. The conditions noted are these: ranking of drugs for expected efficacy against SARS-CoV-2; cited from earlier work.
[9] abbreviates: Vero E6, shorter treatment schedule.

One may read the EC50 as the concentration needed to bring the measured effect to its halfway point. As usually defined, the bioavailability is dose-corrected exposure relative to a reference, in per cent. Regarding `CC(C)C[C@H](NC(=O)[C@H](Cc1ccccc1)NC(=O)c1cnccn1)B(O)O` [Bortezomib], the 50% effective concentration (EC50) in data set [1] (Calu-3 lung cells, MOI 0.001 TCID50/cell, immunostaining at 48±6 hours post inoculation, preliminary results, read-out: EC50) is 6.9 nM; in data set [1] (Severe acute respiratory syndrome coronavirus 2, Calu-3, Calu-3 lung cells, MOI 0.001 TCID50/cell, immunostaining at 48±6 hours post inoculation, preliminary results, read-out: EC50), 7.8 nM; in data set [2] (Vero E6 cells, MOI 0.001 TCID50/cell, immunostaining at 48±6 hours post inoculation, read-out: EC50) it was 9.92 nM. The EC100 entry in data set [1] (Calu-3 lung cells, whether EC100 was achieved) was “Achieved”; in data set [2] (Vero E6 cells, whether EC100 was achieved) it was “Achieved”. In addition, the dissociation half-life in data set [3] was 1.83 h. In addition, the “dose for complete prevention of CPE” value in data set [4] is greater than 30 µM. Besides, the “doses at which inhibition of virus-induced cytopathic effects was observed” value in data set [4] (setting [9]) is greater than 30 µM. The “concentration inhibiting virus-induced cytopathic effects (CPE)” value in data set [4] (Vero E6 cells infected with SARS-CoV-2) was 0.05 µM. Besides, in data set [5] (IV administration or subcutaneous injection), the bioavailability is recorded as 100%. The “time to peak plasma levels” value in data set [5] (after IV administration) is recorded as “approximately 5 minutes”. In data set [6], the “in vitro binding to human plasma protein” value is 83%. Also, the “doses at which cytotoxicity was observed” value in data set [7] (setting [9]) is greater than 30 µM. Also, the “concentration at which cytotoxicity was observed” value in data set [7] (Vero E6 cells) is 2 nM. Also, in data set [8], the “category in algorithmic prediction study” value is listed as “cytotoxic drug”.

For `CC(C)C[C@H](NC(=O)CNC(=O)c1cc(Cl)ccc1Cl)B(O)O` [Ixazomib], the dissociation half-life in data set [3] is 0.3 h.

With `CCC(CC)COC(=O)[C@H](C)N[P@](=O)(OC[C@H]1O[C@@](C#N)(c2ccc3c(N)ncnn23)[C@H](O)[C@@H]1O)Oc1ccccc1` [Remdesivir], the EC50 was found to be 252 nM in data set [1] (Severe acute respiratory syndrome coronavirus 2, Calu-3) and 1150 nM in data set [2].

For the molecule `CCN(CC)CCCC(C)Nc1ccnc2cc(Cl)ccc12` (stereo not shown) [chloroquine], the “dose for complete prevention of CPE” value in data set [4] was 15 µM.
